Test results: publication PMC11224403, “Des-acyl ghrelin reduces alcohol intake and alcohol-induced reward in rodents” (Translational Psychiatry, 2024)

Tests used:
male mice = assay: Locomotor activity test, alcohol-induced stimulation and DAG per se, mice; type: in vivo, NMRI mice
Text: Male and female Rcc Han Wistar rats (8–12 weeks old at arrival; Envigo, Horst, Netherlands) were used for the alcohol drinking and locomotor activity experiments as they drink alcohol to intoxicating levels. For in vivo microdialysis studies male Wistar rats (Charles River, Calco, Italy) were used as they display robust dopamine levels in NAc shell after alcohol injection. […] All rodents were allowed to habituate to the animal facility at least one week before they entered an experiment. […] The sample sizes of each experiment were based on previous experience in which statistical significance has been detected. The person who conducted the experiments, and analyzed the collected data was aware of the treatment allocation. Only preset exclusion criteria were used when analyzing the data obtained in attempts to exclude confounding factors in analyzing data. In the alcohol drinking experiments leaking bottles and low alcohol consumption (<3.0 g/kg for males; <3.5 g/kg for females) were preset exclusion criteria. The preset exclusion criterion in the ex vivo HPLC-EC, ELISA, and recombinant cell line experiments was contamination of the sample. Misplaced probes, technical difficulties, and damages to the surgery area were preset exclusion criteria for the in vivo microdialysis experiment. Intra-cage male aggression was the preset exclusion criterion for the locomotor activity and CPP experiments. To minimize tentative confounding factors, the order of treatments was stratified, with treatments being mixed for each animal cage and for each apparatus used as well as balancing the alcohol intake between future treatment groups.
Alcohol was in the behavioral and neurochemical tests injected (intraperitoneally, IP) 5 min before the test.
Locomotor activity tests were conducted in ventilated and dim-lit (4 lux) open field arenas (420 × 420 × 200 mm; Med Associates Inc; Georgia, Vermont, USA). Infra-red beams detected distance traveled, number of jumps, vertical counts, average velocity, stereotypic counts, number of inner zone entries, and time spent in the inner/outer zones of each animal.
In the first test, after 60 min of habituation, male (n = 24) or female (n = 24) rats were injected with vehicle or DAG (0.5, 1.0, or 2.0 mg/kg). 15 min later the activity was monitored for another 60 min. In the second locomotor activity experiment, male mice (n = 32) were allowed to habituate for 60 min. After that, they were injected with vehicle or DAG (0.25, 0.5, or 1.0 mg/kg). After 15 min the activity was monitored for another 60 min.
Therefore, male mice were (n = 32) injected with DAG (1.0 mg/kg) or vehicle 15 min before alcohol or vehicle. The activity registration started 5 min later and was recorded for an additional 60 min. Identical locomotor activity experiments were conducted in new male mice (n = 32), where a lower dose of DAG (0.5 mg/kg) was combined with alcohol.
The data from drinking experiments were analyzed by unpaired t-test or repeated two-way ANOVA. A two-tailed unpaired t-test analyzed the ELISA, ex vivo HPLC-EC, and cFOS data. In addition, the Pearson test correlated the serum levels and the mean values of alcohol intake in rats. A one-way ANOVA with Bonferroni post hoc tests and unpaired t-test analyzed the locomotor activity and CPP data, respectively. The in vivo microdialysis experiments were evaluated by a repeated two-way ANOVA followed by the Bonferroni post hoc test.

[1] = tested on: monoaminergic neurotransmission in VTA and other brain areas; assay: Ex vivo monoamine content (HPLC-EC) in brain areas of alcohol-drinking rats after repeated DAG; design: species or system Rcc Han Wistar rats
Text: Male and female Rcc Han Wistar rats (8–12 weeks old at arrival; Envigo, Horst, Netherlands) were used for the alcohol drinking and locomotor activity experiments as they drink alcohol to intoxicating levels. For in vivo microdialysis studies male Wistar rats (Charles River, Calco, Italy) were used as they display robust dopamine levels in NAc shell after alcohol injection. […] All rodents were allowed to habituate to the animal facility at least one week before they entered an experiment. During housing (20 °C with 50% humidity) the rodents had free access to water and standard chow (Teklad Rodent Diet; Envigo, Madison, WI, USA). These experiments were approved by the Ethics Committee for Animal Experiments (ethical numbers: 1457/18, 3276/18, 1556/18, 3348/20; Gothenburg, Sweden) and followed the ARRIVE guidelines. The sample sizes of each experiment were based on previous experience in which statistical significance has been detected. The person who conducted the experiments, and analyzed the collected data was aware of the treatment allocation. Only preset exclusion criteria were used when analyzing the data obtained in attempts to exclude confounding factors in analyzing data. In the alcohol drinking experiments leaking bottles and low alcohol consumption (<3.0 g/kg for males; <3.5 g/kg for females) were preset exclusion criteria. The preset exclusion criterion in the ex vivo HPLC-EC, ELISA, and recombinant cell line experiments was contamination of the sample. Misplaced probes, technical difficulties, and damages to the surgery area were preset exclusion criteria for the in vivo microdialysis experiment. Intra-cage male aggression was the preset exclusion criterion for the locomotor activity and CPP experiments. To minimize tentative confounding factors, the order of treatments was stratified, with treatments being mixed for each animal cage and for each apparatus used as well as balancing the alcohol intake between future treatment groups. Although each experiment only was performed once, they were separated over different laboratory days with equal data obtained between sessions.
Individually housed rats had intermittent access to an alcohol (20%) bottle and a water bottle, three 24-h sessions per week, and only water bottles the remaining days. A reversed light/dark cycle was used, and the bottles were changed when the lights went out. First, the rats consumed alcohol for 10 weeks (baseline drinking), where the bottles and food were weighed daily and the body weight weekly. During treatments, the bottles and food were weighed at 4- and/or 24-h and the body weight was measured daily. In the first drinking experiment, the potential of DAG to reduce alcohol consumption was tested and therefore, vehicle or DAG (1 mg/kg) was acutely injected into male (n = 12) or female (n = 12) rats. The second drinking experiment was conducted to establish the effects of lower DAG doses on alcohol intake. Therefore, separate male (n = 18) or female (n = 18) rats, were acutely injected with lower DAG doses (0.5 or 0.25 mg/kg) or vehicle. The third alcohol drinking experiment evaluated the ability of repeated DAG injections to lower alcohol drinking. Therefore, additional male (n = 24) and female (n = 24) rats were injected with either vehicle or DAG (1 mg/kg) at three alcohol-drinking sessions. At the end of the third drinking session, the rats were euthanized and decapitated, and the brains were placed in a brain-slicing matrix. Brain areas central for reward (VTA, NAc shell, NAc core, LDTg, dorsal striatum, hippocampus, paraventricular thalamus, prefrontal cortex, central amygdala) were punched and stored at −80 °C. Each sample was homogenized, and then the monoamine content in the supernatant was analyzed in an HPLC-EC system as described before, allowing tentative determination of brain regions, directly or indirectly, affected by DAG.
The obtained data are normally distributed and with equal variance. […]

[2] = alcohol-drinking female rats, repeated DAG n = 7 vs vehicle n = 9
[3] = alcohol-drinking male rats, repeated DAG n = 8 vs vehicle n = 7

## des-acyl ghrelin (GSSFLSPEHQRVQQRKESKKPPAKLQPR; Ghrelin-28 non-acylated; UniProt Q9UBU3 24-51, looked up) [DAG, non-octanoylated form of ghrelin; purchased from Tocris (printed Tocrise Bioscience), dissolved in 0.9% NaCl]
Male mice; DAG 0.5 mg/kg plus alcohol, n = 8 per group (vehicle-vehicle one removed)
  alcohol-induced locomotor stimulation (effect of DAG): reduced but did not block (P = 0.5319)
Male mice; DAG 1 mg/kg 15 min before alcohol 1.75 g/kg IP, n = 8 per group
  alcohol-induced locomotor stimulation (effect of DAG): prevented the alcohol-induced locomotor stimulation (P = 0.0305)
Male mice; DAG 1 mg/kg without alcohol, n = 8 per group
  locomotor activity, DAG per se: did not alter the activity of the mice (P > 0.9999)
Male mice; DAG 0.25, 0.5 or 1.0 mg/kg, 60 min recording, n = 8 per group, data not shown
  locomotor activity, DAG per se, dose finding: did not influence locomotor activity
[1]; [2]
  ex vivo DOPAC level, VTA: did not change the levels of D DOPAC (t14 = 0.41, P = 0.6904)
  ex vivo HVA level, VTA: did not change the levels of D DOPAC (t14 = 0.41, P = 0.6904), E HVA (t14 = 0.66, P = 0.5196)
  ex vivo dopamine level, VTA: did not change the levels of D DOPAC (t14 = 0.41, P = 0.6904), E HVA (t14 = 0.66, P = 0.5196), or F dopamine (t14 = 0.12, P = 0.9080)
[1]; alcohol-drinking male or female rats, repeated DAG
  dopamine turnover, 5-HIAA, serotonin and serotonin turnover, VTA: neither affected the dopamine turnover, 5-hydroxy indole acetic acid (5-HIAA), serotonin, nor serotonin turnover
[1]; alcohol-drinking male rats, repeated DAG
  ex vivo noradrenaline level, VTA: tended to elevate the ex vivo noradrenaline levels in this area of male rats (Supplementary Fig. 4E, P = 0.0819)
[1]; [3]
  ex vivo DOPAC level, VTA: increased the ex vivo levels of A DOPAC (t13 = 2.94, P = 0.0116)
  ex vivo HVA level, VTA: increased the ex vivo levels of A DOPAC (t13 = 2.94, P = 0.0116) and B HVA (t13 = 3.00, P = 0.0102)
  ex vivo dopamine level, VTA: tended to elevate the dopamine levels (t13 = 1.72, P = 0.1091)
[1]; males and females, repeated DAG, central amygdala, hippocampus, laterodorsal tegmental area, NAc core and shell, prefrontal cortex, paraventricular thalamus, striatum, data not shown
  monoaminergic neurotransmission in other brain areas: Neither in males nor females, DAG altered the monoaminergic neurotransmission
